Patent US20190185509A1, “2'2' CYCLIC DINUCLEOTIDES WITH PHOSPHONATE BOND ACTIVATING THE STING ADAPTOR PROTEIN” (INSTITUTE OF ORGANIC CHEMISTRY AND BIOCHEMISTRY ASCR, V.V.I., priority 2017, published 2019)

Key:
AQ STING (G230A-R293Q) = target: T1, AQ STING (G230A-R293Q) (Homo sapiens, UniProt Q86WV6, G230A/H232R/R293Q); assay: Differential Scanning Fluorimetry (DSF) with AQ STING; assay type: binding; conditions: thermal shift vs apoprotein; truncated human AQ STING 0.1 mg/ml; 150 μM CDN
T1 construct: truncated human WT STING or AQ STING (amino acid residues 140-343) with N-terminal 8×His and SUMO tag; 8xHis-SUMO (N, cleaved yes); made in house; host or cells: E. coli Rosetta-gami B (DE3)
Experimental: (§1) WT STING and AO STING Proteins
(§2) Purified PCR products were cleaved with restriction enzymes BamHI (cat. #R0136S, NEB, Ipswich, USA) and NotI (cat. #R0189S, NEB, Ipswich, USA) and cloned into the pSUMO vector linearized with the identical enzymes.
(§3) DNase I (cat. #D5025, Sigma Aldrich, Czech Republic) and RNase A (cat. #R6513, Sigma Aldrich, Czech Republic) were added (final concentration 50 μg/ml) together with MgCl2 (final concentration 5 mmol·l^−1) to the homogenate and bacteria were lysed using French Press G-M™ High-Pressure Cell Press Homogenizer (1500 psi, 3 cycles). […] The resin was poured into a chromatography column, washed with 50 ml buffer A (50 mmol·l^−1 TrisCl (pH 8.0), 800 mmol·l^−1 NaCl, 3 mmol·l^−1 β-mercaptol; 10% glycerol; 20 mmol·l^−1 imidazole) and 8-His-SUMO tagged STING proteins were eluted with 15 ml buffer A containing 300 mmol·l^−1 imidazole. […] Proteins were concentrated with Amicon® Ultra-15 10 K device (cat. #UFC901008, Merck Millipore, Billerica, USA) and flash frozen in liquid N2.
(§4) Differential Scanning Fluorimetry with WT STING and AQ STING
(§5) 20 μL solutions of the reaction mixtures were pipetted in triplicates into 96 well optical reaction plates and thermal denaturation of samples were performed on real time PCR cycler (LightCycler R 480 Instrument II-Roche, Basel, Switzerland). The first derivative of the thermal denaturation curves was performed to calculate denaturing temperatures of STING-CDN complexes and STING apoproteins. The thermal shift for each CDN was calculated by subtracting the average denaturing temperature of STING apoprotein from the average denaturing temperature of STING CDN complex.

WT STING [1] = target: T2, WT STING (Homo sapiens, UniProt Q86WV6, H232R); assay: Differential Scanning Fluorimetry (DSF) with WT STING; assay type: binding; parameters: truncated human WT STING or AQ STING (amino acid residues 140-343) with N-terminal 8×His and SUMO tag; 8xHis-SUMO (N, cleaved yes); made in house; host or cells: E. coli Rosetta-gami B (DE3); conditions: thermal shift vs apoprotein; truncated human WT STING 0.1 mg/ml; 150 μM CDN
Experimental: as §1, §2, §3, §4, §5
Target sequence in this assay (Q86WV6 140-343 H232R): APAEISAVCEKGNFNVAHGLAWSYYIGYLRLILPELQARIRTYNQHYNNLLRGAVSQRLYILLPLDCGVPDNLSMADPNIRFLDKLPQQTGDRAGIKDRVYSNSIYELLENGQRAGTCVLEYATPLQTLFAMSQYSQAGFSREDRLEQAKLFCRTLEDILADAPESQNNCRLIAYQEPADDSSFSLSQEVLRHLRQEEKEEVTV

WT STING [2] = target: T2, WT STING; assay: Digitonin assay using 293T wtSTING-FL reporter cells; assay type: cell-based; conditions: 293T wtSTING-FL cells, ISRE firefly luciferase reporter; 30 min in Digitonin buffer, then 5 hours; 8-point dose-response
Source text: ISRE Reporter Plasmid (pGL64.27-4×ISRE)
Two complementary oligonucleotides of the sequence […] […] […] […] […] […] […] The oligonucleotides were mixed in equal molar amounts, hybridized, and cleaved by restriction endonucleases HindIII (cat. #. R0104S, NEB, Ipswich, USA) and BglII (cat. #R0144S, NEB, Ipswich, USA). Ultimately, they were ligated into plasmid pGL4.27 (cat. #E6651, Promega, Madison, USA) linearized with the same enzymes. As result the sequence with four ISRE sites was placed upstream of the minimum promoter of firefly luciferase reporter gene.
After 5 minutes incubation at room temperature (RT), 250 μL of the mixture was added dropwise to the cells in one well. Cells were incubated 36 hours at 37° C. with 5% CO2, and then detached with 0.05% Trypsin and 0.22 g/L EDTA (both cat. #L0941, Biowest, Riverside, USA).
Transfected cells were seeded onto poly-D-lysine coated six well plates at density 50,000 cells per 1 cm^2 in DMEM medium with high glucose containing 10% heat inactivated FBS, 30 μg/mL blasticidin (cat. #ant-bl-05, InvivoGen, San Diego, USA), 0.06 mg/ml Penicillin G and 0.1 mg/ml Streptomycin Sulfate (both cat. #. L0018, Biowest, Riverside, USA). The medium was replenished every 3-4 days until visible colonies of cells resistant to blasticidin were formed.
Blasticidin resistant cells stably expressing WT STING were further transfected with pGL64.27-4×ISRE plasmid following the same procedure as described above. […] Homogeneous culture of stably double transfected cells was prepared by limiting dilution of cells in 96 well plates and wells with cells were selected that originated from a single cell.
The medium was removed next day and three fold serial dilutions of compounds in Digitonin buffer containing 50 mmol·l^−1 HEPES (cat. #H3375, Sigma Aldrich, Czech Republic) pH 7.0, 100 mmol·l^−1 KCl, 3 mmol·l^−1 MgCl2, 0.1 mmol·l^−1 DTT (cat. #D0632, Sigma Aldrich, Czech Republic), 85 mmol·l^−1 Sucrose (cat. #S7903, Sigma Aldrich, Czech Republic), 0.2% BSA (cat. #A2153, Sigma Aldrich, Czech Republic), 1 mmol·l^−1 ATP (cat. #A1852, Sigma Aldrich, Czech Republic), 0.1 mmol·l^−1 GTP (cat. #G8877, Sigma Aldrich, Czech Republic), and 10 μg/mL Digitonin A (cat. #D141, Sigma Aldrich, Czech Republic) were added to the cells. The buffer was removed after 30 minutes incubation at 37° C. with 5% CO2, the cells were washed once with 100 μl of cultivation medium, and 100 μl of medium was added to each well. The plates with cells were incubated for 5 hours at 37° C. with 5% CO2, 50 μl of the medium was removed and 30 μl of ONE-Glo™ Luciferase Assay System reagent (cat. #E6120, Promega, Madison, USA) was added to each well. Luminescence was read on Synergy H1 (Biotek, Winooski, USA).
Target sequence in this assay (Q86WV6 whole entry H232R, the tested form may be a part): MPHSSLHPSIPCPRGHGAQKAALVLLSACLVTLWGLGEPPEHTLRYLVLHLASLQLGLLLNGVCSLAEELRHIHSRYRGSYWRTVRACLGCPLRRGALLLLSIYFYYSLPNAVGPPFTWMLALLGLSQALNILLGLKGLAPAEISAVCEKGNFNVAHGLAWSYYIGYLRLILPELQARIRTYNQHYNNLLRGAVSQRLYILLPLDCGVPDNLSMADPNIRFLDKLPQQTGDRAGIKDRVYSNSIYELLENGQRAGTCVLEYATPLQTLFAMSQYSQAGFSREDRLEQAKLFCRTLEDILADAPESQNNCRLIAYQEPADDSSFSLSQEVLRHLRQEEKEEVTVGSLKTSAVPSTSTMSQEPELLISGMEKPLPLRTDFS

T1 sequence (Q86WV6 140-343 G230A/H232R/R293Q): as the sequence (Q86WV6 140-343 H232R) above, with G91A, R154Q counted along it

DSF ΔTm AQ STING (AQ STING (G230A-R293Q)) [°C] | DSF ΔTm WT STING (WT STING [1]) [°C] | EC50 (WT STING [2]) [µM] | Structure (SMILES)
6.3 | 2.0 | 6 | Nc1ncnc2c1ncn2[C@@H]1O[C@@H]2COP(=O)(O)O[C@@H]3[C@H](O)[C@@H](COCP(=O)(O)O[C@@H]1[C@@H]2O)O[C@H]3n1cnc2c(N)ncnc21 [Compound 12, (1R,6R,8R,9R,15R,17R,18R,19R)-8,17-bis(6-amino-9H-purin-9-yl)-3,11,18,19-tetrahydroxy-2,4,7,10,13,16-hexaoxa-3,11-diphosphatricyclo[13.2.1.1^6,9]nonadecane 3,11-dioxide]
5.5 | 1.7 | 16.4 | Nc1ncnc2c1ncn2[C@@H]1O[C@@H]2COP(=O)(O)O[C@H]3[C@H](O)[C@@H](COCP(=O)(O)O[C@@H]1[C@@H]2O)O[C@H]3n1cnc2c(N)ncnc21 [Compound 15, (1S,6R,8R,9R,15R,17R,18R,19R)-8,17-bis(6-amino-9H-purin-9-yl)-3,11,18,19-tetrahydroxy-2,4,7,10,13,16-hexaoxa-3,11-diphosphatricyclo[13.2.1.16,9]nonadecane 3,11-dioxide]
7.9 | 2.5 | 4.2 | Nc1ncnc2c1ncn2[C@@H]1O[C@@H]2OCP(=O)(O)O[C@@H]3[C@H](O)[C@@H](OCP(=O)(O)O[C@@H]1[C@@H]2O)O[C@H]3n1cnc2c(N)ncnc21 [Compound 11, (1R,6R,8R,9R,14R,16R,17S,18S)-8,16-bis(6-amino-9H-purin-9-yl)-3,11,17,18-tetrahydroxy-2,5,7,10,13,15-hexaoxa-3,11-diphosphatricyclo[12.2.1.1^6,9]octadecane 3,11-dioxide]
– | 0.6 | – | C[C@]12OCP(=O)(O)O[C@H]3[C@H](n4cnc5c(N)ncnc54)O[C@](C)(OCP(=O)(O)O[C@@H]([C@H](n4cnc5c(N)ncnc54)O1)[C@@H]2O)[C@H]3O [Compound 13, (1R,6R,8R,9R,14R,16R,17S,18S)-8,16-bis(6-amino-9H-purin-9-yl)-3,11,17,18-tetrahydroxy-6,14-dimethyl-2,5,7,10,13,15-hexaoxa-3,11-diphosphatricyclo[12.2.1.1^6,9]octadecane 3,11-dioxide]
20.8 | 0.7 | 2.35 | Nc1ncnc2c1ncn2[C@@H]1O[C@@H]2OCP(=O)(O)O[C@@H]3[C@H](O)[C@@H](COP(=O)(O)O[C@@H]1[C@@H]2O)O[C@H]3n1cnc2c(N)ncnc21 [Compound 14, (1R,6R,8R,9R,14R,16R,17S,18R)-8,16-bis(6-amino-9H-purin-9-yl)-3,11,17,18-tetrahydroxy-2,4,7,10,13,15-hexaoxa-3,11-diphosphatricyclo[12.2.1.1^6,9]octadecane 3,11-dioxide]
